# In ChEMBL document CHEMBL1201862, “PubChem BioAssay data set” (2004):
# Activity calls are given as the source filed them. Rule as the data show it, for most assays here: actives have a measured EC50 and inactives only a lower limit.
# Target: T1, Rac GTPase-activating protein 1 (Homo sapiens, UniProt Q9H0H5)
# T1 sequence (Q9H0H5 whole entry): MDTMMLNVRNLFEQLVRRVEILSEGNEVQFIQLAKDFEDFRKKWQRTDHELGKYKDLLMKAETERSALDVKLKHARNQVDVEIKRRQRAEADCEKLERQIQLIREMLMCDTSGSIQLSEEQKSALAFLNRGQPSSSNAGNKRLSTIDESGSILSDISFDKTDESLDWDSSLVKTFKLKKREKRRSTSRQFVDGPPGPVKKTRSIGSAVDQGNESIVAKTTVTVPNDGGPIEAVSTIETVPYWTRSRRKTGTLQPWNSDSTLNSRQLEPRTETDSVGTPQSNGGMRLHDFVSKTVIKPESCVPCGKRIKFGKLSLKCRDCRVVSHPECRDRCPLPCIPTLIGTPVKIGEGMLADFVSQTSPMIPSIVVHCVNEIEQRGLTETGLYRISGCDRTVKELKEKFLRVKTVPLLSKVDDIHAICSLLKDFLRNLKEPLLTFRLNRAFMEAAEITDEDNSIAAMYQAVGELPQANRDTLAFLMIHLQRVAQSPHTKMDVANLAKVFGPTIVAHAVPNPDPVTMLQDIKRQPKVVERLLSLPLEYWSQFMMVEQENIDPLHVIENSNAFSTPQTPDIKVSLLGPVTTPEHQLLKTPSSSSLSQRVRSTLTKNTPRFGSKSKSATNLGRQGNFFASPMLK
# Assay: blockers of MgcRacGAP-driven Rac1 GTP hydrolysis – biochemical, ADP Hunter fluorescence, primary and confirmatory, confirmation (AID 624330)
# Format: functional
# Settings: not given
row,Compound,IC50
1,Nc1ccc(C(=O)c2ccc3c(c2)OCCO3)cc1N,22.9 µM (active)
2,CCN(CC)c1ccc(/C=N/N2CCOCC2)c(O)c1,75.6 µM (active)

# Test system: Streptococcus
# Assay: GAS UMAA2166 growth inhibition – luminescence, BacTiterGlo, counter-screen for streptokinase expression inhibitor project, dose response (AID 1915);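 also: potency for reduction of bacterial viability or growth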
# Format: functional, organism-based
# Settings: not given
row,Compound,EC50
1,Cc1cccc(Nc2nc(N)nc(CN3CCN(c4ccccc4F)CC3)n2)c1,45.8 µM (active)
2,COc1ccc(Oc2nc(-c3ccccn3)nc3ccccc23)cc1,> 150 µM (not active)
3,O=C(CSc1nc(O)c2cnn(-c3ccccc3)c2n1)N1N=C(c2cccs2)CC1c1ccc(F)cc1 (stereo not drawn),7.18 µM (active)
4,Cc1cc(C)c(C2C3=C(Nc4c2c(C)nn4-c2ccccn2)c2ccccc2C3=O)c(C)c1 (stereo not drawn),128 µM (active)
5,COc1ccc(-c2csc(NC(=O)c3ccc(C(C)(C)C)cc3)c2C(=O)O)cc1,7.24 µM (active)
6,CC(C)(C)c1ccc(C(=O)N2CCN(C(=O)c3ccco3)CC2)cc1,> 150 µM (not active)
7,CCc1ccc(CN(C)Cc2nc(-c3cccc(Cl)c3)no2)nc1,> 150 µM (not active)
8,COCC1CCN(C(=O)c2ccc3oc(Cc4ccccc4)nc3c2)C1 (stereo not drawn),> 150 µM (not active)

# Test system: not listed separately
# Assay: Luminescence Cell-Based Dose Response HTS to Identify Inhibitors of 5'UTR Stem-Loop Driven Prion Protein mRNA Translation in H4 Neuroglioblastoma Cells. [Related pubchem assays: 1827 (Project Summary), 1813 (Primary HTS)]
# Format: functional
# Settings: not given
row,Compound,EC50
1,Cc1cc(C)c(C2C3=C(Nc4c2c(C)nn4-c2ccccn2)c2ccccc2C3=O)c(C)c1 (stereo not drawn),> 120 µM (not active)
2,COc1ccc(-c2csc(NC(=O)c3ccc(C(C)(C)C)cc3)c2C(=O)O)cc1,4.3 µM (active)

# Test system: not listed separately
# Assay: viability of uninfected HEp-2 cells – cell-based, HTS, cytotoxicity control for RSV inhibitor project, dose response (AID 2410)
# Format: functional
# Settings: human respiratory syncytial virus
row,Compound,CC50
1,COc1ccc(-c2cc(C(F)F)n3ncc(C(=O)N4CCc5ccccc5C4)c3n2)cc1,28.3 µM (active)
2,Cc1cc(C)c([N+](=O)[O-])cc1-c1ccc(/C=N/NC(=O)c2nonc2N)o1,> 50 µM (active)
3,O=C(Nc1cccc(-c2cccc(Cl)c2)c1)C1CCN(Cc2ccc(CO)o2)CC1,12.7 µM (active)
4,CCc1cc2c(=O)c(-c3ccc4c(c3)OCCO4)coc2cc1OC(=O)c1ccco1,29.9 µM (active)
5,Cc1cc2c(cc1C)CSC(c1ccccc1OC(=O)C(C)(C)C)SC2,16.8 µM (active)
6,CN1C(=O)C(=Cc2c(OCc3cnc(Cl)s3)ccc3ccccc23)C(=O)N(C)C1=O,20.3 µM (active)
7,Nc1cc(-c2ccc(Br)cc2)nn1S(=O)(=O)c1cccc2nsnc12,11.2 µM (active)

# Target: Paired box protein Pax-8 (Homo sapiens, UniProt Q06710)
# Sequence (Q06710 whole entry): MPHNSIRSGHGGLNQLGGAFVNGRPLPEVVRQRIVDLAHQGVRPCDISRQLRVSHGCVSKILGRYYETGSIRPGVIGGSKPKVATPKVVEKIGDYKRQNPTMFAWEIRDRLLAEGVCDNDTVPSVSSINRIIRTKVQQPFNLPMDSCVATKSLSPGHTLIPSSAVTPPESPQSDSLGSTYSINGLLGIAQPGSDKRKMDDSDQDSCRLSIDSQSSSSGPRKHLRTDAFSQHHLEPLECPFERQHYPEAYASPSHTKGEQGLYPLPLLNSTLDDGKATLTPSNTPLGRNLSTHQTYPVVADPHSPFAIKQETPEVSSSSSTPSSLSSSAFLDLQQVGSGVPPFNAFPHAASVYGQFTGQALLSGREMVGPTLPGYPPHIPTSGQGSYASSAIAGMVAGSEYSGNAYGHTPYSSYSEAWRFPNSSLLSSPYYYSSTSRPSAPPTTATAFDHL
# Assay: PAX8 transcriptional activity inhibition in RMG-I – RMG-I cells, luciferase, cherry-pick, dose response (AID 687027);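 also: luciferase reporter driven by Pax8 target thyroperoxidase promoter measured by SteadyGlo luminescence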
# Format: functional, cell-based
# Settings: not given
row,Compound,AC50
1,C[C@@H]1CCCCO[C@H](CN(C)Cc2ccc(C(F)(F)F)cc2)[C@H](C)CN([C@H](C)CO)C(=O)c2cc(NC(=O)Nc3ccc(F)cc3)ccc2O1,10.7 µM (active)
2,O=C(c1ccc(F)cc1)N1C[C@@H]2N[C@H](C1)[C@@H]2c1ccc(-c2ccc(F)cc2)cc1,18.3 µM (active)
3,C[C@@H]1CCCCO[C@H](CN(C)S(=O)(=O)c2ccc(Cl)cc2)[C@H](C)CN([C@@H](C)CO)C(=O)c2cc(N(C)C)ccc2O1,8.81 µM (active)
4,COC1C(CO)OC(n2c3c(Cl)cccc3c3c4c(c5c6cccc(Cl)c6[nH]c5c32)C(=O)NC4=O)C(O)C1O (stereo not drawn),1.11 µM (active)

# Target: T2, Streptokinase A (Streptococcus pyogenes serotype M1, UniProt P10520)
# T2 sequence (P10520 whole entry): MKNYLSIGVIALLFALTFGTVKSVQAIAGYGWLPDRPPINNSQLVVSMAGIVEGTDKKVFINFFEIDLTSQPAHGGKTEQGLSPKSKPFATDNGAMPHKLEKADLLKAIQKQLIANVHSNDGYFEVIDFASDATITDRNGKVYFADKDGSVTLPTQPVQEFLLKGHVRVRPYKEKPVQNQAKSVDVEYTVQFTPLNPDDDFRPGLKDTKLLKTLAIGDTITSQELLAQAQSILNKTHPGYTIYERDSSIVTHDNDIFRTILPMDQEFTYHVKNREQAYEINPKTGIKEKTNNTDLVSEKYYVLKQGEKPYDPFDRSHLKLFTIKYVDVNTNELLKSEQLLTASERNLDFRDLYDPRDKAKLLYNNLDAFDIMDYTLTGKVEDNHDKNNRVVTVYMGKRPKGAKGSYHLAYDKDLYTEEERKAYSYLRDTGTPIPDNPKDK
# Assay: viability-normalized secreted streptokinase activity reduction – plasminogen activation absorbance, OD405, dose response (AID 1914);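 also: secreted streptokinase activity via plasminogen activation per viability signal from cell pellet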
# Format: functional, Streptococcus pyogenes M1 GAS
# Settings: not given
row,Compound,EC50
1,Cc1cccc(Nc2nc(N)nc(CN3CCN(c4ccccc4F)CC3)n2)c1,> 150 µM (not active)
2,COc1ccc(Oc2nc(-c3ccccn3)nc3ccccc23)cc1,> 150 µM (not active)
3,O=C(CSc1nc(O)c2cnn(-c3ccccc3)c2n1)N1N=C(c2cccs2)CC1c1ccc(F)cc1 (stereo not drawn),> 150 µM (not active)
4,Cc1cc(C)c(C2C3=C(Nc4c2c(C)nn4-c2ccccn2)c2ccccc2C3=O)c(C)c1 (stereo not drawn),22.2 µM (active)
5,COc1ccc(-c2csc(NC(=O)c3ccc(C(C)(C)C)cc3)c2C(=O)O)cc1,3.12 µM (inconclusive)
6,CC(C)(C)c1ccc(C(=O)N2CCN(C(=O)c3ccco3)CC2)cc1,> 150 µM (not active)
7,CCc1ccc(CN(C)Cc2nc(-c3cccc(Cl)c3)no2)nc1,> 150 µM (not active)
8,COCC1CCN(C(=O)c2ccc3oc(Cc4ccccc4)nc3c2)C1 (stereo not drawn),> 150 µM (not active)

# Test system: not listed separately
# Assay: Luminescence Cell-Based Dose Confirmation HTS to Identify Activators of 5'UTR Stem-Loop Driven Alpha-Synuclein mRNA Translation in H4 Neuroglioblastoma Cells. [Related pubchem assays: 1829 (Project Summary), 1814 (Primary HTS)]
# Format: functional
# Settings: not given
row,Compound,EC50
1,Nc1ccc(C(=O)c2ccc3c(c2)OCCO3)cc1N,9.68 µM (active)

# Test system: not listed separately
# Assay: Luminescence Cell-Based Dose Response HTS to Identify Activators of Luciferase Translation or Activity in H4 […] Cells. [Related pubchem assays: 1829 (Project Summary), 1814 (Primary HTS)]
# Format: functional
# Settings: not given
row,Compound,EC50
1,Nc1ccc(C(=O)c2ccc3c(c2)OCCO3)cc1N,8.7 µM (active)
2,CCN(CC)c1ccc(/C=N/N2CCOCC2)c(O)c1,4.58 µM (active)

# Test system: Streptococcus sp. 'group A'
# Assay: Streptococcus pyogenes SK(-)GAS viability under kanamycin – luminescence, BacTiterGlo, confirmation, counter-screen for streptokinase expression inhibitor project, dose response (AID 1900)
# Format: functional, organism-based
# Settings: read-out: EC50
row,Compound,EC50
1,Cc1cccc(Nc2nc(N)nc(CN3CCN(c4ccccc4F)CC3)n2)c1,7.31 µM (active)
2,COc1ccc(Oc2nc(-c3ccccn3)nc3ccccc23)cc1,17.1 µM (active)
3,O=C(CSc1nc(O)c2cnn(-c3ccccc3)c2n1)N1N=C(c2cccs2)CC1c1ccc(F)cc1 (stereo not drawn),3.15 µM (active)
4,Cc1cc(C)c(C2C3=C(Nc4c2c(C)nn4-c2ccccn2)c2ccccc2C3=O)c(C)c1 (stereo not drawn),7.61 µM (active)
5,COc1ccc(-c2csc(NC(=O)c3ccc(C(C)(C)C)cc3)c2C(=O)O)cc1,1.75 µM (active)
6,CC(C)(C)c1ccc(C(=O)N2CCN(C(=O)c3ccco3)CC2)cc1,> 150 µM (not active)
7,CCc1ccc(CN(C)Cc2nc(-c3cccc(Cl)c3)no2)nc1,18.4 µM (active)
8,COCC1CCN(C(=O)c2ccc3oc(Cc4ccccc4)nc3c2)C1 (stereo not drawn),> 150 µM (not active)

# Test system: H4
# Assay: Luminescence Cell-Based Dose Response HTS to Identify Activators of 5'UTR Stem-Loop Driven Prion Protein mRNA Translation in H4 Neuroglioblastoma Cells. [Related pubchem assays: 1829 (Project Summary), 1814 (Primary HTS)]
# Format: functional
# Settings: Homo sapiens
row,Compound,EC50
1,Nc1ccc(C(=O)c2ccc3c(c2)OCCO3)cc1N,21.2 µM (active)
2,CCN(CC)c1ccc(/C=N/N2CCOCC2)c(O)c1,20 µM (active)

# Test system: not listed separately
# Assay: luciferase reporter signal suppression in cells – H4 neuroglioma cells, luminescence, dose response (AID 1990)
# Format: functional, cell-based
# Settings: not given
row,Compound,EC50
1,Cc1cc(C)c(C2C3=C(Nc4c2c(C)nn4-c2ccccn2)c2ccccc2C3=O)c(C)c1 (stereo not drawn),17 µM (active)
2,COc1ccc(-c2csc(NC(=O)c3ccc(C(C)(C)C)cc3)c2C(=O)O)cc1,14.5 µM (active)

# Test system: not listed separately
# Assay: alpha-synuclein stem-loop luciferase translation blockers – H4 neuroglioma cells, luminescence, confirmation (AID 1988)
# Format: functional, cell-based
# Settings: not given
row,Compound,EC50
1,Cc1cc(C)c(C2C3=C(Nc4c2c(C)nn4-c2ccccn2)c2ccccc2C3=O)c(C)c1 (stereo not drawn),19.9 µM (active)
2,COc1ccc(-c2csc(NC(=O)c3ccc(C(C)(C)C)cc3)c2C(=O)O)cc1,11.5 µM (active)
